Experimental data as given in paper PMC2867052 (Journal of contaminant hydrology, 2009).
Where two headings read alike, the source gives them in different places.

Experiments:
[1] = type: physicochemical; conditions: for Sherwood Number (Sh): calculated from initial dissolution rate coefficient; for Dissolution Rate Coeff. (kL): model-calibrated initial value
[2] = type: physicochemical; conditions: for Dissolution Rate Coeff. (kL): model-calibrated initial value
[3] = 10% by weight HPCD
[4] = 1 Component - HPCD (10% by weight)
[5] = 3 Component - HPCD (10% by weight)
[6] = single-component organic liquid

CCCCc1ccccc1 [butylbenzene]
E-Normalized Rate Coeff. (kL/E) ([1]; 3 Component - Water): 15 ± 11 h⁻¹
Sherwood Number (Sh) ([1]; 3 Component - Water): 0.6
Dissolution Rate Coeff. (kL) ([1]; 3 Component - Water): 15 ± 11 h⁻¹
E-Normalized Rate Coeff. (kL/E) ([2]; 1 Component - HPCD): 16 ± 2 h⁻¹
Sherwood Number (Sh) [2, 4]: 100
Dissolution Rate Coeff. (kL) [2, 4]: 1902 ± 240 h⁻¹
E-Normalized Rate Coeff. (kL/E) ([2]; 3 Component - HPCD): 15 ± 4 h⁻¹
Sherwood Number (Sh) [2, 5]: 82
Dissolution Rate Coeff. (kL) [2, 5]: 1900 ± 490 h⁻¹

CCc1ccccc1 [ethylbenzene]
E-Normalized Rate Coeff. (kL/E) ([1]; 3 Component - Water): 17 ± 3 h⁻¹
Sherwood Number (Sh) ([1]; 3 Component - Water): 0.6
Dissolution Rate Coeff. (kL) ([1]; 3 Component - Water): 17 ± 3 h⁻¹
E-Normalized Rate Coeff. (kL/E) ([2]; 1 Component - HPCD): 17 ± 3 h⁻¹
Sherwood Number (Sh) [2, 4]: 15
Dissolution Rate Coeff. (kL) [2, 4]: 342 ± 57 h⁻¹
E-Normalized Rate Coeff. (kL/E) ([2]; 3 Component - HPCD): 18 ± 3 h⁻¹
Sherwood Number (Sh) [2, 5]: 14
Dissolution Rate Coeff. (kL) [2, 5]: 341 ± 57 h⁻¹
10% HPCD Enhancement Factor (E°) [3, 6]: 20
10% HPCD Enhancement Factor (E°) ([3]; three-component organic liquid (Tol-EB-BB)): 19

Cc1ccccc1 [toluene, Toluene]
E-Normalized Rate Coeff. (kL/E) ([1]; 1 Component - Water): 22 ± 5 h⁻¹
E-Normalized Rate Coeff. (kL/E) ([1]; 3 Component - Water): 21 ± 4 h⁻¹
Dissolution Rate Coeff. (kL) ([1]; 3 Component - Water): 21 ± 4 h⁻¹
E-Normalized Rate Coeff. (kL/E) ([2]; 1 Component - HPCD): 21 ± 6 h⁻¹
Sherwood Number (Sh) [2, 4]: 6
Dissolution Rate Coeff. (kL) [2, 4]: 161 ± 44 h⁻¹
E-Normalized Rate Coeff. (kL/E) ([2]; 3 Component - HPCD): 21 ± 4 h⁻¹
Sherwood Number (Sh) [2, 5]: 6
Dissolution Rate Coeff. (kL) [2, 5]: 165 ± 30 h⁻¹
10% HPCD Enhancement Factor (E°) [3, 6]: 7.7
